According to patent publication US12679824B2 (Hoffmann-La Roche Inc., priority 2020, dated 2026):

Test system: Acinetobacter baumannii ATCC17961
Assay: 90% Growth Inhibitory Concentration (IC90) determination, antimicrobial susceptibility testing
Type: cell-based
Conditions: Acinetobacter baumannii, ATCC17961, 16 h, Acinetobacter baumannii ATCC17961; Iso-Sensitest broth; growth by optical density at 600 nm over 16h; concentration inhibiting 90% of the growth; read-out: ATCC 17961 IC90
Description: Antimicrobial Susceptibility Testing:
90% Growth Inhibitory Concentration (IC90) Determination
The in vitro antimicrobial activity of the compounds was determined according to the following procedure:
The assay used a 10-points Iso-Sensitest broth medium to measure quantitatively the in vitro activity of the compounds against Acinetobacter baumannii ATCC17961.
Stock compounds in DMSO were serially twofold diluted (e.g. range from 50 to 0.097 μM final concentration) in 384 wells microtiter plates and inoculated with 49 μl the bacterial suspension in Iso-Sensitest medium to have a final cell concentration of ~5×10^(5) CFU/ml in a final volume/well of 50 ul/well. Microtiter plates were incubated at 35±2° C.
Bacterial cell growth was determined with the measurement of optical density at λ=600 nm each 20 minutes over a time course of 16h. Growth inhibition was calculated during the logarithmic growth of the bacterial cells with determination of the concentration inhibiting 50% (IC50) and 90% (IC90) of the growth.
Table 1 provides the 90% growth inhibitory concentrations (IC90) in micromoles per liter of the compounds of present invention obtained against the strain Acinetobacter baumannii ATCC17961.

SMILES | IC90 [nM]
Cn1c(-c2cn(-c3ccc(N)cn3)nc2C(F)(F)F)cnc1C(=O)Nc1ccc(C(=O)N2C3CNCC2C3)c(Cl)c1 [Example Z55, 5-[1-(5-amino-2-pyridyl)-3-(trifluoromethyl)pyrazol-4-yl]-N-[3-chloro-4-(3,6-diazabicyclo[3.1.1]heptane-6-carbonyl)phenyl]-1-methyl-imidazole-2-carboxamide] | 340
Cn1c(-c2cn(-c3ccc(N)cn3)nc2C(F)(F)F)cnc1C(=O)Nc1ccc(C(=O)N[C@@H]2COC3(C2)CN(C(=O)[C@@H]2C[C@@H](O)CN2)C3)c(Cl)c1 [Example Z41, 5-[1-(5-amino-2-pyridyl)-3-(trifluoromethyl)pyrazol-4-yl]-N-[3-chloro-4-[[(7S)-2-[(2S,4R)-4-hydroxyprolyl]-5-oxa-2-azaspiro[3.4]octan-7-yl]carbamoyl]phenyl]-1-methyl-imidazole-2-carboxamide] | 300
Cn1c(-c2cn(-c3ccc(N)cn3)nc2C(F)(F)F)cnc1C(=O)Nc1ccc(C(=O)NC2CC(CN)(CCl)C2)c(Cl)c1 (stereo not drawn) [Example Z15, N-[4-[[3-(aminomethyl)-3-(chloromethyl)cyclobutyl]carbamoyl]-3-chloro-phenyl]-5-[1-(5-amino-2-pyridyl)-3-(trifluoromethyl)pyrazol-4-yl]-1-methyl-imidazole-2-carboxamide] | 910
Cn1c(-c2cn(-c3ccc(N)cn3)nc2C(F)(F)F)cnc1C(=O)Nc1ccc(C(=O)NCCOCCNC(=O)[C@@H]2C[C@@H](O)CN2)c(Cl)c1 [Example Z40, 5-[1-(5-amino-2-pyridyl)-3-(trifluoromethyl)pyrazol-4-yl]-N-[3-chloro-4-[2-[2-[[(2S,4R)-4-hydroxyprolyl]amino]ethoxy]ethylcarbamoyl]phenyl]-1-methyl-imidazole-2-carboxamide] | 780
Cn1c(-c2cn(-c3ccc(N)cn3)nc2C(F)(F)F)cnc1C(=O)Nc1ccc(C(=O)N[C@H]2C[C@@H](N)C2)c(Cl)c1 [Example Z11, N-[4-[cis-(3-aminocyclobutyl)carbamoyl]-3-chloro-phenyl]-5-[1-(5-amino-2-pyridyl)-3-(trifluoromethyl)pyrazol-4-yl]-1-methyl-imidazole-2-carboxamide] | 950
CCN(CC)C(=O)c1ccc(NC(=O)c2ncc(-c3cn(-c4ccc(N)cn4)nc3C(F)(F)F)n2C)cc1Cl [Example Z76, 5-[1-(5-amino-2-pyridyl)-3-(trifluoromethyl)pyrazol-4-yl]-N-[3-chloro-4-(diethylcarbamoyl)phenyl]-1-methyl-imidazole-2-carboxamide] | 1140
Cn1c(-c2cn(-c3ccc(N)cn3)nc2C(F)(F)F)cnc1C(=O)Nc1ccc(C(=O)NCCCCCN)c(Cl)c1 [Example Z28, N-[4-(5-aminopentylcarbamoyl)-3-chloro-phenyl]-5-[1-(5-amino-2-pyridyl)-3-(trifluoromethyl)pyrazol-4-yl]-1-methyl-imidazole-2-carboxamide] | 360
Cn1c(-c2cn(-c3ccc(N)cn3)nc2C(F)(F)F)cnc1C(=O)Nc1ccc(C(=O)NCC2(NC(=O)[C@@H]3CC(O)CN3)CC2)c(Cl)c1 (stereo in doubt) [Example Z43, 5-[1-(5-amino-2-pyridyl)-3-(trifluoromethyl)pyrazol-4-yl]-N-[3-chloro-4-[[1-[[(2S,4R)-4-hydroxyprolyl]amino]cyclopropyl]methylcarbamoyl]phenyl]-1-methyl-imidazole-2-carboxamide] | 1220

The remaining lines, values ahead:

IC90 [nM] | SMILES
910 | Cn1c(-c2cn(-c3ncc(F)cn3)nc2C(F)(F)F)cnc1C(=O)Nc1ccc(C(=O)N2CCN(C(=O)C3CCNCC3)CC2)c(Cl)c1 [Example A8, N-[3-chloro-4-[4-(piperidine-4-carbonyl)piperazine-1-carbonyl]phenyl]-5-[1-(5-fluoropyrimidin-2-yl)-3-(trifluoromethyl)pyrazol-4-yl]-1-methyl-imidazole-2-carboxamide]
1170 | CC[C@@H]1CNCCN1C(=O)c1ccc(NC(=O)c2ncc(-c3cn(-c4ccc(N)cn4)nc3C(F)(F)F)n2C)cc1Cl [Example Z63, 5-[1-(5-amino-2-pyridyl)-3-(trifluoromethyl)pyrazol-4-yl]-N-[3-chloro-4-[(2R)-2-ethylpiperazine-1-carbonyl]phenyl]-1-methyl-imidazole-2-carboxamide]
510 | Cn1c(-c2cn(-c3ncc4cn[nH]c4n3)nc2C(F)(F)F)cnc1C(=O)Nc1ccc(C(=O)N2CCN(C(=O)C3CCNCC3)CC2)c(Cl)c1 [Example A9, N-[3-chloro-4-[4-(piperidine-4-carbonyl)piperazine-1-carbonyl]phenyl]-1-methyl-5-[1-(1h-pyrazolo[3,4-d]pyrimidin-6-yl)-3-(trifluoromethyl)pyrazol-4-yl]imidazole-2-carboxamide]
480 | Cn1c(-c2cn(-c3cnccn3)nc2C(F)(F)F)cnc1C(=O)Nc1ccc(C(=O)N2CCN(C(=O)C3CCNCC3)CC2)c(Cl)c1 [Example A20, N-[3-chloro-4-[4-(piperidine-4-carbonyl)piperazine-1-carbonyl]phenyl]-1-methyl-5-[1-pyrazin-2-yl-3-(trifluoromethyl)pyrazol-4-yl]imidazole-2-carboxamide]
1800 | Cn1c(-c2cn(-c3ccc(N)cn3)nc2C(F)(F)F)cnc1C(=O)Nc1ccc(C(=O)NC2(CO)CCNC2)c(Cl)c1 (stereo not drawn) [Example Z5, 5-[1-(5-amino-2-pyridyl)-3-(trifluoromethyl)pyrazol-4-yl]-N-[3-chloro-4-[(3-methylolpyrrolidin-3-yl)carbamoyl]phenyl]-1-methyl-imidazole-2-carboxamide]
510 | Cn1c(-c2cn(-c3ccc(N)cn3)nc2C(F)(F)F)cnc1C(=O)Nc1ccc(C(=O)N2CCC3(CC2)CCN(C(=O)[C@@H]2C[C@@H](O)CN2)C3)c(Cl)c1 [Example Z22, 5-[1-(5-amino-2-pyridyl)-3-(trifluoromethyl)pyrazol-4-yl]-N-[3-chloro-4-[2-[(2S,4R)-4-hydroxyprolyl]-2,8-diazaspiro[4.5]decane-8-carbonyl]phenyl]-1-methyl-imidazole-2-carboxamide]
1110 | COc1ccc(-n2cc(-c3cnc(C(=O)Nc4ccc(C(=O)N5CCN(C(=O)C6CCNCC6)CC5)c(Cl)c4)n3C)c(C(F)(F)F)n2)cn1 [Example Z75, N-[3-chloro-4-(4-isonipecotoylpiperazine-1-carbonyl)phenyl]-5-[1-(6-methoxy-3-pyridyl)-3-(trifluoromethyl)pyrazol-4-yl]-1-methyl-imidazole-2-carboxamide]
680 | CNc1ccnc(-n2cc(-c3cnc(C(=O)Nc4ccc(C(=O)N5CCN(C(=O)C6CCNCC6)CC5)c(Cl)c4)n3C)c(C(F)(F)F)n2)n1 [Example A16, N-[3-chloro-4-[4-(piperidine-4-carbonyl)piperazine-1-carbonyl]phenyl]-1-methyl-5-[1-[4-(methylamino)pyrimidin-2-yl]-3-(trifluoromethyl)pyrazol-4-yl]imidazole-2-carboxamide]
780 | Cn1c(-c2cn(-c3ccc(Cl)nc3)nc2C(F)(F)F)cnc1C(=O)Nc1ccc(C(=O)N2CCN(C(=O)[C@@H]3C[C@@H](O)CN3)CC2)c(Cl)c1 [Example Z30, N-[3-chloro-4-[4-[(2S,4R)-4-hydroxyprolyl]piperazine-1-carbonyl]phenyl]-5-[1-(6-chloro-3-pyridyl)-3-(trifluoromethyl)pyrazol-4-yl]-1-methyl-imidazole-2-carboxamide]
280 | CNc1ccc(-n2cc(-c3cnc(C(=O)Nc4ccc(C(=O)N5CCN(C(=O)[C@@H]6C[C@@H](O)CN6)CC5)c(Cl)c4)n3C)c(C(F)(F)F)n2)nc1 [Example D7, N-[3-chloro-4-[4-[(2S,4R)-4-hydroxypyrrolidine-2-carbonyl]piperazine-1-carbonyl]phenyl]-1-methyl-5-[1-[5-(methylamino)-2-pyridyl]-3-(trifluoromethyl)pyrazol-4-yl]imidazole-2-carboxamide]
700 | C[C@H]1CN(C(=O)c2ccc(NC(=O)c3ncc(-c4cn(-c5ccc(N)cn5)nc4C(F)(F)F)n3C)cc2Cl)CCN1 [Example Z61, 5-[1-(5-amino-2-pyridyl)-3-(trifluoromethyl)pyrazol-4-yl]-N-[3-chloro-4-[(3S)-3-methylpiperazine-1-carbonyl]phenyl]-1-methyl-imidazole-2-carboxamide]

Same assay, conditions: Acinetobacter baumannii, ATCC17961, 16 h, read-out: ATCC 17961 IC90

SMILES | IC90 [nM]
Cn1c(-c2cn(-c3ccc(N)cn3)nc2C(F)(F)F)cnc1C(=O)Nc1ccc(C(=O)N2CCC(CN3CCNCC3=O)CC2)c(Cl)c1 [Example I1, 5-[1-(5-Amino-2-pyridyl)-3-(trifluoromethyl)pyrazol-4-yl]-N-[3-chloro-4-[4-[(2-oxopiperazin-1-yl)methyl]piperidine-1-carbonyl]phenyl]-1-methyl-imidazole-2-carboxamide] | 1500
CCNc1ccc(-n2cc(-c3cnc(C(=O)Nc4ccc(C(=O)N5CCN(C(=O)C6CCNCC6)CC5)c(Cl)c4)n3C)c(C(F)(F)F)n2)nc1 [Example K1, N-[3-chloro-4-[4-(piperidine-4-carbonyl)piperazine-1-carbonyl]phenyl]-5-[1-[5-(ethylamino)-2-pyridyl]-3-(trifluoromethyl)pyrazol-4-yl]-1-methyl-imidazole-2-carboxamide] | 500
